Data published in patent US11008291B2, “Methods of forming carbene-functionalized composite materials” (Queen's University at Kingston, priority 2015, dated 2021).

Key:
[1] = Bench stability and solubility of carbene precursors; type: physicochemical
[2] = Chemical stability tests of NHC films on Au(111) (XPS); type: physicochemical; conditions: pH 2, THF 68° C., water RT 1 month, water 100° C., decalin, 1% H2O2; 24 h (FIGS. 7a-7g)
Protocol: All films were prepared using the hydrogen carbonate salt (carbene precursor) 3a and the solution deposition method previously described. Data for stability measurements are given in Chemical Stability Results.
NHC films derived from iPr2bimy(H)[HCO3] (3a) were submerged in freshly prepared unbuffered solutions of varying pH (pH 2 or pH 12) in Ace Glass pressure tubes at 25° C. for 24 h. Experiments were conducted under N2 gas to minimize the possibility of pH change due to adsorption of atmospheric CO2. After this time, functionalized surfaces were rinsed in deionized water (3×2 mL) and dried in an N2 gas stream. The pH values of the solutions were adjusted using concentrated NaOH and HCl solutions in deionized water. Unbuffered solutions were employed in order to avoid potential adsorption effects of buffer ions from solution.
NHC films derived from iPr2bimy(H)[HCO3] (3a) were placed in Ace Glass pressure tubes and 3 mL of freshly distilled tetrahydrofuran (THF) was added. The tube was purged with nitrogen gas, sealed and heated to 68° C. for 24 h. After this time, the sample was cooled to RT, rinsed in THF (2×5 mL), and dried under a nitrogen gas stream.
NHC films derived from iPr2bimy(H)[HCO3] (3a) were placed in Ace Glass pressure tubes and 2 mL of decalin were added. The tubes were purged with nitrogen gas, sealed and heated to either 100° C. or 190° C. for 24 h. […]

[3] = Temperature programmed desorption of NHC films from Au; type: physicochemical; conditions: TPD, FIG. 2
Protocol: Vapor deposition experiments were conducted in three separate stainless steel UHV chambers hosting an Ar ion sputtering gun and annealing facilities for sample cleaning. TPD data were collected in a UHV chamber (base pressure P=[…]) equipped with a quadrupole mass spectrometer (SPECTRA, Microvision Plus) in direct line-of-sight with the crystal, and a LEED/Auger spectrometer (SpectaLEED, Omicron). STM images were recorded in a third chamber (base pressure=[…]) equipped with a variable temperature scanning tunneling microscope (Omicron), and LEED optics. An electrochemically etched W tip was used for STM imaging typically employing bias voltages of ±0.6 V and tunneling currents of 300 pA. Image processing and filtering have been applied to the STM data using WSxM.

[4] = biological target: bovine serum albumin (BSA) (Bos taurus, UniProt P02769); assay: Ferulic acid / BSA interaction on NHC-CM5 chip (SPR); type: binding; conditions: 100, 200, 400, 800 μM; FIG. 20
Sequence of bovine serum albumin (BSA) (P02769 25-607): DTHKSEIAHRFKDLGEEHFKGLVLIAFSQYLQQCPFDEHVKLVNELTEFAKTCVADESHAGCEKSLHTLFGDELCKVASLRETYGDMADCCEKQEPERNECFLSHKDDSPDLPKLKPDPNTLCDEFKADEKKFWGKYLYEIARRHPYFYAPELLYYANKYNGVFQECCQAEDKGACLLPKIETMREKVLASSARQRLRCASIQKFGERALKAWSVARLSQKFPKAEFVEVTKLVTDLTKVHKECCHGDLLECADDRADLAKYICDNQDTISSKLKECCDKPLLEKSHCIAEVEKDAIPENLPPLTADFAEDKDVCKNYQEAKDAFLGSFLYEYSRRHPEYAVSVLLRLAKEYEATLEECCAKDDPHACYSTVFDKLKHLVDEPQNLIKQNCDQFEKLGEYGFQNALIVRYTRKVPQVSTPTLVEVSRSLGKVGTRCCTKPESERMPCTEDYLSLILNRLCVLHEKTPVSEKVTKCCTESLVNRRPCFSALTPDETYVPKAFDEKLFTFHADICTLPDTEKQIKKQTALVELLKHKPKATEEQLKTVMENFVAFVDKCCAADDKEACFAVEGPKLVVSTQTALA
Protocol: NHC-CM5 (500 KDa) chip was used for this study. Bovine Serum Albumin (BSA) was immobilized (covalently bound to the sensor surface) using amine-coupling chemistry. PBS (10 mM phosphate, 138 mM NaCl, 2.7 mM KCl, pH 7.4) was used as running buffer. […] Final immobilization level of BSA of this study was around 3500 RU. Unmodified dextran surface was used as a reference surface (FC1).
Ferulic acid was first serially diluted into running buffer to final concentrations of 100, 200, 400, 800 μM. To test data quality and further equilibrate the surfaces, four warm-up buffer cycles were performed at a flow rate of 30 μl/min. Then, ferulic acid was injected over the reference and BSA surfaces at a flow rate of […] cycle consisted of a 2-min waiting period for monitoring of the baseline stability. Then the ferulic acid/BSA complex was allowed to associate and dissociate for 3-min and 3-min, respectively, and 20 mM NaOH (30 s) was used as the regeneration solution. The data was processed by subtracting from reference flow cell and blank injections—double referencing method.

HSA = HSA (Homo sapiens, UniProt P02768); assay: Opioid/protein interactions on HSA-immobilized NHC-CM5 chip (SPR); type: binding; conditions: for Detection of opioid on HSA surface of NHC-CM5 chip: 50, 100, 200, 400 μM, FIG. 21A-D
Sequence of HSA (P02768 25-609): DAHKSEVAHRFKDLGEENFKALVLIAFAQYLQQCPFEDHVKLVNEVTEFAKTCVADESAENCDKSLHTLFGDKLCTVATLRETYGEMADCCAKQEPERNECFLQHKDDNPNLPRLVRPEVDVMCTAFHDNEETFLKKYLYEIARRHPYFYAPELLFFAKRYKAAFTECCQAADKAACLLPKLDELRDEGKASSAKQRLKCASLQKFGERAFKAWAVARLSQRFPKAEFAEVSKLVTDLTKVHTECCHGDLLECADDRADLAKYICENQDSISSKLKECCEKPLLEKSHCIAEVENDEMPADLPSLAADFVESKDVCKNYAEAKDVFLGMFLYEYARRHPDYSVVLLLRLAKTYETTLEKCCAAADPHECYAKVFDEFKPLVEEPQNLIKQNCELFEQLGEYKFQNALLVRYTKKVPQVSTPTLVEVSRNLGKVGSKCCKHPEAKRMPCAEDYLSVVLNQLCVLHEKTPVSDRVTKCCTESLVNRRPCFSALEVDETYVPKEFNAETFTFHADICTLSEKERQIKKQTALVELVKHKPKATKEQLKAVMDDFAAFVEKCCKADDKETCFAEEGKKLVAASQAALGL
Protocol: NHC-CM5 chip was used for this study. HSA was immobilized using amine-coupling chemistry. […] Three 30s-injections of 50 mM NaOH was used to wash off non-covalently bound HSA and to further stabilize the baseline. […] Unmodified dextran surface was used as a reference surface.
Opioids were first serially diluted into running buffer to final concentrations of 50, 100, 200, 400 μM. To test data quality and further equilibrate the surfaces, 4 warm-up buffer cycles were performed at a flow rate of 30 μl/min. Opioids samples were injected over the reference and HSA surfaces at a flow rate of 30 μl/min. Replicate injections of each drug concentration were analyzed. Each cycle consisted of a 1-min waiting period for monitoring of the baseline stability. Then the drug/HSA complex was allowed to associate and dissociate for 60 s and 30 s, respectively. […] Data obtained in the reference flow cell was subtracted from that obtained in the HSA immobilized flow cell.

Q: With `CC(C)n1c[n+](C(C)C)c2ccccc21` [Compound 3a, 1,3-Diisopropylbenzimidazolium hydrogen carbonate] as the compound, how does the “Solubility in THF and DCE” value ([1]; THF, DCE) read?
A: mild solubility

Q: What about the “Stability of the solid” value ([1]; ambient, in air) of the same compound?
A: bench-stable

Q: And the “Solubility in ethanol and methanol” value ([1]; ethanol, methanol)?
A: soluble

Q: What about the Solubility in water ([1]; water) of the same compound?
A: highly soluble

Q: And the “XPS spectra of NHC SAM on gold derived from the precursor, before vs after treatment” value [2]?
A: remained unchanged

Q: And the “Maximum desorption temperature of NHC film from Au” value [3]?
A: 605 K

Q: With `COc1cc(C=CC(=O)O)ccc1O` [ferulic acid, 4-hydroxy-3-methoxycinnamic acid] as the compound, how does the “Sensing of ferulic acid by BSA pre-immobilized NHC-CM5 surface” value [4] read?
A: can sense

Q: Which “Detection of opioid on HSA surface of NHC-CM5 chip” value (HSA) does the source give for `CC(=O)Oc1ccc2c3c1O[C@H]1[C@@H](OC(C)=O)C=C[C@H]4[C@@H](C2)N(C)CC[C@@]341` [heroin] here?
A: successfully detected

Q: What about the “Detectability at the lowest concentration” value (HSA; lowest of 50, 100, 200, 400 μM) of the same compound?
A: not detectable

Q: For `CNC1(c2ccccc2Cl)CCCCC1=O` (stereo not shown) [ketamine], which “Detection of opioid on HSA surface of NHC-CM5 chip” value (HSA) is on record?
A: successfully detected
